Results on 17 compounds are retold here after patent US20240270762A1, “PENICILLIN-BINDING PROTEIN INHIBITORS” (priority 2021, published 2024).

Test [1] deals with T1, PBP3 from Acinetobacter baumannii (ATCC 19606) (Acinetobacter baumannii, UniProt A0ABX6CK25).
T1 sequence (A0ABX6CK25 64-610): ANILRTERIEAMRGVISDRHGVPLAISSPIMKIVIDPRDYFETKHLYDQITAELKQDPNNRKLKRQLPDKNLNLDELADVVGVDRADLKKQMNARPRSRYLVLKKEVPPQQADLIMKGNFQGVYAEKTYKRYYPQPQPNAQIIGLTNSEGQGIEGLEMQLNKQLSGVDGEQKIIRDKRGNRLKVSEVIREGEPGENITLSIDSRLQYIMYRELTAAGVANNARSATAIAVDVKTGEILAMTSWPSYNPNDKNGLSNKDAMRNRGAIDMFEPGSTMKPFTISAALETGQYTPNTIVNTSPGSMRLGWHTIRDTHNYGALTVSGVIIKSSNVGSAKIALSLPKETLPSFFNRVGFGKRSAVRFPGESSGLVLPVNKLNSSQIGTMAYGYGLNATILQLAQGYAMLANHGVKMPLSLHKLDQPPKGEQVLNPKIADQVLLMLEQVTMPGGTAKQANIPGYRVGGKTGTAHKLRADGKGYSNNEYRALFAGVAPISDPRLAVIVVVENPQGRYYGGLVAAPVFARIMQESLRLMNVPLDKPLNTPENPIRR
Briefly: Bocillin-FL fluorescence polarization competition binding, A. baumannii PBP3. As to conditions: fluorescence polarization competition binding assay using Bocillin-FL; read-out: A. baumannii PBP3 Potency. The text has this:
To determine the ability of boronic acid-based test PBP inhibitors to bind Penicillin Binding Proteins (PBPs), Bocillin-FL (fluorescently-labeled penicillin V; ThermoFisher Scientific) was used in a fluorescence polarization (FP) competition binding assay to assess inhibitor binding to PBP3 from Escherichia coli (K-12), PBP3 from Pseudomonas aeruginosa (PAO1), PBP1a and PBP3 from Acinetobacter baumannii (ATCC 19606), and PBP2 from Neisseria gonorrhoeae (FA19). PBPs were cloned and purified as described previously (E. coli PBP3, King, D. T, et al., ACS Infectious Diseases 2015, 1, 175-184; P. aeruginosa PBP3, Han et. al., PNAS 2010, 107 (51), 22002-22007; A. baumannii PBPs, Penwell et. al., Antimicrob. Agents Chemother. 2015, 59 (3), 1680-1689; N. gonorrhoeae PBP2, Singh et. al., J. Biol. Chem. 2019, 294 (38), 14020-14032). To establish assay conditions for competition binding, enzyme titration/saturation binding experiments were initially performed. Bocillin-FL was prepared at 0.2 μM in a buffer comprised of 50 mM Hepes (pH 8.0), 300 mM NaCl and 10% (v/v) glycerol for reactions with E. coli, P. aeruginosa and N. gonorrhoeae PBPs, and 25 mM Tris (pH 8.0), 200 mM NaCl, 10% (v/v) glycerol and 0.005% (v/v) Tween 20 for reactions with A. baumannii PBPs. Saturation binding was performed by mixing 40 μl of PBP solutions ranging in concentrations from 0-24 μM with 40 μl of the 0.2 μM Bocillin-FL solution, in individual wells of a black 384-well microplate. FP was measured immediately upon mixing (Excitation, 490 nm; Emission, 520 nm; g-factor, 0.96), using a Cytation3 (BioTek) microplate reader and measured continuously for up to 120 minutes. The FP response stabilized after 15 minutes for P. aeruginosa and A. baumannii PBP3, 30 minutes for E. coli PBP3 and A. baumannii PBP1a, and less than 1 minute for N. gonorrhoeae PBP2. […] The competition binding assay (80 μl final volume) was validated using beta-lactams and PBPs at final concentrations of: 1.5 μM for E. coli PBP3; 0.75 μM for P. aeruginosa PBP3; 1 μM for A. baumannii PBP1a; 0.2 μM for A. baumannii PBP3; and 0.25 μM for N. gonorrhoeae PBP2. Bocillin-FL was at 0.1 μM (0.05 μM with A. baumannii PBP1a) and beta-lactam concentrations ranged from 0-1,000 μM. E. coli PBP3 was incubated with increasing concentrations of ampicillin in a black 384-well microplate (Corning) for 30 minutes. P. aeruginosa PBP3 was incubated for 15 minutes with aztreonam, whereas A. baumannii PBP1a and PBP3 were incubated for 15 minutes with meropenem, and then Bocillin-FL was added followed immediately by the FP measurement for up to 60 minutes. […] The beta-lactam potency was reported as the concentration of beta-lactam required to reduce the amount of PBP bound-Bocillin-FL by 50% (EC50). […] The EC50 of aztreonam was determined to be <0.5 μM for P. aeruginosa PBP3. […] Binding assays for boronic acid PBP inhibitors were performed in an identical fashion for the respective PBPs.
(In general: In fluorescence polarisation assays a small probe gives low polarisation when free and higher when bound to something large.)

Another test concerns A. baumannii CDC-0036. Briefly: microbe, parasite or virus in culture. In kind it is cell-based. The conditions noted are these: Acinetobacter baumannii, CDC0036, read-out: MIC, A. baumannii CDC-0036.
A further test concerns A. baumannii ATCC 17978. Put plainly: microbe, parasite or virus in culture. In kind it is cell-based. The conditions noted are these: Acinetobacter baumannii, ATCC17978, read-out: MIC, A. baumannii ATCC 17978.

In brackets after ≈: the same amount, converted by molar mass.

Take `CCN1CCN(C(=O)N[C@@H](C(=O)N[C@H]2Cc3ccc(F)c(C(=O)O)c3OB2O)c2ccc(P(=O)(O)O)cc2)C(=O)C1=O` (single isomer, unassigned) [Example 10]: the IC50 in test [1] is less than 10 µM.
Still for that read-out and setting: in the case of `CS(=O)(=O)N1CCN(C(=O)N[C@@H](C(=O)N[C@H]2Cc3cccc(C(=O)O)c3OB2O)c2ccc(P(=O)(O)O)c(F)c2F)C1=O` (single isomer, unassigned) [Example 13] it was less than 10 µM; in that of `CS(=O)(=O)N1CCN(C(=O)N[C@@H](C(=O)N[C@H]2Cc3cccc(C(=O)O)c3OB2O)c2ccc(P(=O)(O)O)c(F)c2)C1=O` (single isomer, unassigned) [Example 15], less than 10 µM; in that of `CS(=O)(=O)N1CCN(C(=O)N[C@@H](C(=O)N[C@H]2Cc3cccc(C(=O)O)c3OB2O)c2cc(F)c(P(=O)(O)O)c(F)c2)C1=O` (single isomer, unassigned) [Example 18], less than 10 µM.
In the case of `CS(=O)(=O)N1CCN(C(=O)N[C@@H](C(=O)N[C@H]2Cc3ccc(F)c(C(=O)O)c3OB2O)c2ccc(P(=O)(O)O)c(F)c2)C1=O` (single isomer, unassigned) [Example 19], the MIC in the test with A. baumannii CDC-0036 is more than 128 µg/mL; in the test with A. baumannii ATCC 17978, 8 to 16 µg/mL (≈ 12.4 to 24.8 µM). For the same compound, the IC50 in test [1] is less than 10 µM.
Consider `N[C@@H](C(=O)N[C@H]1Cc2cccc(C(=O)O)c2OB1O)c1ccc(P(=O)(O)O)cc1` (single isomer, unassigned) [Example 171], for which the IC50 in test [1] lay within 50 to 250 µM.
Consider `O=C(O)c1c(F)ccc2c1OB(O)[C@@H](NC(=O)C(NC(=O)N1CCN(Cc3ccc(O)c(O)c3Cl)C(=O)C1=O)c1ccc(P(=O)(O)O)cc1)C2` (stereo partly drawn) [Example 8, (3R)-3-(2-(4-(2-chloro-3,4-dihydroxybenzyl)-2,3-dioxopiperazine-1-carboxamido)-2-(4-phosphonophenyl)acetamido)-7-fluoro-2-hydroxy-3,4-dihydro-2H-benzo[e][1,2]oxaborinine-8-carboxylic acid], for which the MIC in the test on A. baumannii CDC-0036 is 2 to 4 µg/mL (≈ 2.72 to 5.44 µM); in the test on A. baumannii ATCC 17978 it was less than 1 µg/mL. Besides, the IC50 in test [1] is less than 10 µM.
With `CS(=O)(=O)N1CCN(C(=O)NC(C(=O)N[C@H]2Cc3cccc(C(=O)O)c3OB2O)c2ccc(P(=O)(O)O)c(Cl)c2)C1=O` (stereo partly drawn) [Example 11, (3R)-3-(2-(3-chloro-4-phosphonophenyl)-2-(3-(methylsulfonyl)-2-oxoimidazolidine-1-carboxamido)acetamido)-2-hydroxy-3,4-dihydro-2H-benzo[e][1,2]oxaborinine-8-carboxylic acid], the IC50 in test [1] is less than 10 µM.
Same read-out and setting: in the case of `NC(C(=O)N[C@H]1Cc2ccc(F)c(C(=O)O)c2OB1O)c1ccc(P(=O)(O)O)cc1` (stereo partly drawn) [Example 14, (3R)-3-(2-amino-2-(4-phosphonophenyl)acetamido)-7-fluoro-2-hydroxy-3,4-dihydro-2H-benzo[e][1,2]oxaborinine-8-carboxylic acid] it was more than 250 µM.
Turning to `CS(=O)(=O)N1CCN(C(=O)N[C@@H](C(=O)N[C@H]2Cc3ccc(F)c(C(=O)O)c3OB2O)c2ccc(P(=O)(O)O)c(F)c2F)C1=O` [Example 16, (R)-3-((R)-2-(2,3-difluoro-4-phosphonophenyl)-2-(3-(methylsulfonyl)-2-oxoimidazolidine-1-carboxamido)acetamido)-7-fluoro-2-hydroxy-3,4-dihydro-2H-benzo[e][1,2]oxaborinine-8-carboxylic acid], the IC50 in test [1] was less than 10 µM.
The same measure, in the same setting: under `CS(=O)(=O)N1CCN(C(=O)NC(C(=O)N[C@H]2Cc3cccc(C(=O)O)c3OB2O)c2ccc(P(=O)(O)O)c(O)c2)C1=O` (stereo partly drawn) [Example 17, (3R)-2-hydroxy-3-(2-(3-hydroxy-4-phosphonophenyl)-2-(3-(methylsulfonyl)-2-oxoimidazolidine-1-carboxamido)acetamido)-3,4-dihydro-2H-benzo[e][1,2]oxaborinine-8-carboxylic acid] stands less than 10 µM.
Turning to `CCN1CCN(C(=O)NC(C(=O)N[C@H]2Cc3cccc(C(=O)O)c3OB2O)c2ccc(CP(=O)(O)O)cc2)C(=O)C1=O` (stereo partly drawn) [Example 20, (3R)-3-(2-(4-ethyl-2,3-dioxopiperazine-1-carboxamido)-2-(4-(phosphonomethyl)phenyl)acetamido)-2-hydroxy-3,4-dihydro-2H-benzo[e][1,2]oxaborinine-8-carboxylic acid], the IC50 in test [1] was less than 10 µM.
In the case of `CCN1CCN(C(=O)NC(C(=O)N[C@H]2Cc3cccc(C(=O)O)c3OB2O)c2ccc(P(=O)(O)O)c(O)c2)C(=O)C1=O` (stereo partly drawn) [Example 21, (3R)-3-(2-(4-ethyl-2,3-dioxopiperazine-1-carboxamido)-2-(3-hydroxy-4-phosphonophenyl)acetamido)-2-hydroxy-3,4-dihydro-2H-benzo[e][1,2]oxaborinine-8-carboxylic acid], in test [1], the IC50 is less than 10 µM.
`O=C(O)c1c(F)ccc2c1OB(O)[C@@H](NC(=O)C(NC(=O)N1CCN(Cc3ccc(O)c(O)c3Cl)C(=O)C1=O)c1ccc(P(=O)(O)O)c(F)c1)C2` (stereo partly drawn) [Example 23, (3R)-3-(2-(4-(2-chloro-3,4-dihydroxybenzyl)-2,3-dioxopiperazine-1-carboxamido)-2-(3-fluoro-4-phosphonophenyl)acetamido)-7-fluoro-2-hydroxy-3,4-dihydro-2H-benzo[e][1,2]oxaborinine-8-carboxylic acid]: the MIC in the test on A. baumannii CDC-0036 and in the test with A. baumannii ATCC 17978 was less than 1 µg/mL in each case. Also, in test [1], the IC50 was less than 10 µM.
Turning to `CC(=O)NC(C(=O)N[C@H]1Cc2cccc(C(=O)O)c2OB1O)c1ccc(P(=O)(O)O)cc1` (stereo partly drawn) [Example 26, (3R)-3-(2-acetamido-2-(4-phosphonophenyl)acetamido)-2-hydroxy-3,4-dihydro-2H-benzo[e][1,2]oxaborinine-8-carboxylic acid], the IC50 in test [1] was less than 10 µM.
For `O=C(O)c1c(F)ccc2c1OB(O)[C@@H](NC(=O)C(NC(=O)N1CCN(Cc3ccc(O)c(O)c3Cl)C1=O)c1ccc(P(=O)(O)O)cc1)C2` (stereo partly drawn) [Example 46, (3R)-3-(2-(3-(2-chloro-3,4-dihydroxybenzyl)-2-oxoimidazolidine-1-carboxamido)-2-(4-phosphonophenyl)acetamido)-7-fluoro-2-hydroxy-3,4-dihydro-2H-benzo[e][1,2]oxaborinine-8-carboxylic acid], the IC50 in test [1] was less than 10 µM.
Same read-out and setting: in the case of `CS(=O)(=O)N1CCN(C(=O)NC(C(=O)N[C@H]2Cc3cccc(C(=O)O)c3OB2O)c2ccc(P(=O)(O)O)c(F)c2O)C1=O` (stereo partly drawn) [Example 48, (3R)-3-(2-(3-fluoro-2-hydroxy-4-phosphonophenyl)-2-(3-(methylsulfonyl)-2-oxoimidazolidine-1-carboxamido)acetamido)-2-hydroxy-3,4-dihydro-2H-benzo[e][1,2]oxaborinine-8-carboxylic acid] it was 50 to 250 µM.
